Data on 31 compounds can be found in ChEMBL document CHEMBL3399979, “Discovery of novel Bruton's tyrosine kinase (BTK) inhibitors bearing a pyrrolo[2,3-d]pyrimidine scaffold” (Bioorg Med Chem, 2015).

A word on the IC50: it is the concentration needed to halve the response being measured. Low values mean higher potency, high ones lower potency.

The target of assay [1] is T1, Tyrosine-protein kinase BTK (Homo sapiens, UniProt Q06187). Nature of the assay: Inhibition of BTK (unknown origin) after 1 hr by TR-FRET analysis. In general terms: TR-FRET usually uses a lanthanide donor and a delayed reading to cut background.
Assay [2] has as its target T1, Tyrosine-protein kinase BTK. Nature of the assay: Inhibition of BTK in human Ramos cells after 20 mins by fluorescence assay. It is filed as cell-based.

T1 sequence (Q06187 whole entry): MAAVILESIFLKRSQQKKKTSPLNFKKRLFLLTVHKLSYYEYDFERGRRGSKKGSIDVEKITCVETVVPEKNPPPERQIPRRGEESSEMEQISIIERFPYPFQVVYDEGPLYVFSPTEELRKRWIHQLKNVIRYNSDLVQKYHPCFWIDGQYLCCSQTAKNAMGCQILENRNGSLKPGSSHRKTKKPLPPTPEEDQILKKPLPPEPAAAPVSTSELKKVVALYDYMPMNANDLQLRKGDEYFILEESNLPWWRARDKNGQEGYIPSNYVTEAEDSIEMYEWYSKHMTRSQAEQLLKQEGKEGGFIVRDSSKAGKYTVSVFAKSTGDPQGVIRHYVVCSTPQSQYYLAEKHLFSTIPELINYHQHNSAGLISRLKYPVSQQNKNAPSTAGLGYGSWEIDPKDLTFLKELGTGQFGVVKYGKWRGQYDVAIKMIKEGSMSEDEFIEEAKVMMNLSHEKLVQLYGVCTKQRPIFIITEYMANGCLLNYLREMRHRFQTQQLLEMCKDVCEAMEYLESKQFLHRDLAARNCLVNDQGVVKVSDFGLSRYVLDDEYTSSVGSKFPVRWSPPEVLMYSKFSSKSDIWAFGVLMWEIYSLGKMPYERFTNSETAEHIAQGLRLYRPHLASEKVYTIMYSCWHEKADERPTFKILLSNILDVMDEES

`O=c1c2c(F)cc(C3CC3)cc2ccn1-c1cccc(-c2ncnc3[nH]c(-c4cc[nH]n4)cc23)c1CO`: the IC50 in assay [1] worked out at 38.8 nM; in assay [2], 47 nM.
Taken in the same sequence, the figures for `CN(C)C(=O)c1ccc(-c2cc3c(-c4cccc(-n5ccc6cc(C7CC7)cc(F)c6c5=O)c4CO)ncnc3[nH]2)cc1` were 17.8 nM and 15 nM.
For `CC(=O)N1CC=C(c2cc3c(-c4cccc(-n5ccc6cc(C7CC7)cc(F)c6c5=O)c4CO)ncnc3[nH]2)CC1` the same measures were 15.3 nM and 21.4 nM.
Taken in the same sequence, the figures for `CN1CC=C(c2cc3c(-c4cccc(-n5ccc6cc(C7CC7)cc(F)c6c5=O)c4CO)ncnc3[nH]2)CC1` were 57.1 nM and 125 nM.
With `CN(C)S(=O)(=O)N1CC=C(c2cc3c(-c4cccc(-n5ccc6cc(C7CC7)cc(F)c6c5=O)c4CO)ncnc3[nH]2)CC1`, the IC50 in assay [1] came to 16.5 nM; in assay [2], 26 nM.
With `O=C(c1ccc(-c2cc3c(-c4cccc(-n5ccc6cc(C7CC7)cc(F)c6c5=O)c4CO)ncnc3[nH]2)cc1)N1CCCCC1`, the IC50 in assay [1] is 50.8 nM; in assay [2] it was 65 nM.
Taken in the same sequence, the figures for `O=c1c2c(F)cc(C3CC3)cc2ccn1-c1cccc(-c2ncnc3[nH]c(-c4ccc(CN5CCOCC5)cc4)cc23)c1CO` were 63.6 nM and 12 nM.
Take `CN(C)C(=O)c1cccc(-c2cc3c(-c4cccc(-n5ccc6cc(C7CC7)cc(F)c6c5=O)c4CO)ncnc3[nH]2)c1`: the IC50 in assay [1] came out at 69 nM; in assay [2], 87.3 nM.
Turning to `CN(C)C(=O)N1CCC(c2cc3c(-c4cccc(-n5ccc6cc(C7CC7)cc(F)c6c5=O)c4CO)ncnc3[nH]2)CC1`, the IC50 in assay [1] worked out at 574 nM; in assay [2], 1650 nM.
Take `CN(C)Cc1ccc(-c2cc3c(-c4cccc(-n5ccc6cc(C7CC7)cc(F)c6c5=O)c4CO)ncnc3[nH]2)cc1`: the results for the IC50 in assay [1] and in assay [2] were 31.6 nM and 33 nM, respectively.
On to `CC(=O)c1cc(-c2cc3c(-c4cccc(-n5ccc6cc(C7CC7)cc(F)c6c5=O)c4CO)ncnc3[nH]2)cs1`, for which the IC50 turned out to be 119 nM in assay [1] and 58 nM in assay [2].
On to `CN(C)C(=O)N1CC=C(c2cc3c(-c4cccc(-n5ccc6cc(C7CC7)cc(F)c6c5=O)c4CO)ncnc3n2C)CC1`, for which the IC50 in assay [1] and in assay [2] was more than 5000 nM throughout.
With `O=c1c2c(F)cc(C3CC3)cc2ccn1-c1cccc(-c2ncnc3[nH]c(C4=CCCCC4)cc23)c1CO`, the IC50 in assay [1] turned out to be 77.8 nM; in assay [2], 350 nM.
Taken in the same sequence, the figures for `COc1ccc(-c2cc3c(-c4cccc(-n5ccc6cc(C7CC7)cc(F)c6c5=O)c4CO)ncnc3[nH]2)cn1` were 197 nM and 74 nM.
For `O=C(N1CC=C(c2cc3c(-c4cccc(-n5ccc6cc(C7CC7)cc(F)c6c5=O)c4CO)ncnc3[nH]2)CC1)N1CCOCC1` the same measures were 4.8 nM and 17 nM.
With `O=c1c2c(F)cc(C3CC3)cc2ccn1-c1cccc(-c2ncnc3[nH]ccc23)c1CO`, the IC50 in assay [1] is 1570 nM; in assay [2], more than 5000 nM.
Taken in the same sequence, the figures for `O=c1c2c(F)cc(C3CC3)cc2ccn1-c1cccc(-c2ncnc3[nH]c(-c4ccccc4)cc23)c1CO` were 90.3 nM and 79 nM.
For `Nc1cccc(-c2cc3c(-c4cccc(-n5ccc6cc(C7CC7)cc(F)c6c5=O)c4CO)ncnc3[nH]2)c1` the same measures were 136 nM and 65 nM.
For `O=c1c2c(F)cc(C3CC3)cc2ccn1-c1cccc(-c2ncnc3[nH]c(C4=CCN(C5COC5)CC4)cc23)c1CO` the same measures were 24.8 nM and 11 nM.
Turning to `O=C(c1ccc(-c2cc3c(-c4cccc(-n5ccc6cc(C7CC7)cc(F)c6c5=O)c4CO)ncnc3[nH]2)cc1)N1CCOCC1`, the IC50 in assay [1] was 18.2 nM; in assay [2] it was 10 nM.
For `COc1ccc(-c2cc3c(-c4cccc(-n5ccc6cc(C7CC7)cc(F)c6c5=O)c4CO)ncnc3[nH]2)cc1`, the IC50 in assay [1] stood at 58.3 nM; in assay [2], 38.8 nM.
For `CN(C)C(=O)c1cc2c(-c3cccc(-n4ccc5cc(C6CC6)cc(F)c5c4=O)c3CO)ncnc2[nH]1` the same measures were 1360 nM and 1560 nM.
Regarding `CC(=O)c1ccc(-c2cc3c(-c4cccc(-n5ccc6cc(C7CC7)cc(F)c6c5=O)c4CO)ncnc3[nH]2)cc1`, the IC50 worked out at 41.7 nM in assay [1] and 49 nM in assay [2].
For `O=c1c2c(F)cc(C3CC3)cc2ccn1-c1cccc(-c2ncnc3[nH]c(C4=CCN(c5ncccn5)CC4)cc23)c1CO` the same measures were 45.3 nM and 69.7 nM.
For `CN(C)C(=O)N1CC=C(c2cc3c(-c4cccc(-n5ccc6cc(C7CC7)cc(F)c6c5=O)c4CO)ncnc3[nH]2)CC1` the same measures were 7 nM and 21.6 nM.
Take `CS(=O)(=O)N1CC=C(c2cc3c(-c4cccc(-n5ccc6cc(C7CC7)cc(F)c6c5=O)c4CO)ncnc3[nH]2)CC1`: the figures for the IC50 in assay [1] and in assay [2] were 15.8 nM and 7.9 nM, respectively.
Taken in the same sequence, the figures for `CNC(=O)N1CC=C(c2cc3c(-c4cccc(-n5ccc6cc(C7CC7)cc(F)c6c5=O)c4CO)ncnc3[nH]2)CC1` were 25.2 nM and 51.3 nM.
Take `O=c1c2c(F)cc(C3CC3)cc2ccn1-c1cccc(-c2ncnc3[nH]c(C4=CCNCC4)cc23)c1CO`: the IC50 in assay [1] turned out to be 32.5 nM; in assay [2], 96.5 nM.
For the compound `O=c1c2c(F)cc(C3CC3)cc2ccn1-c1cccc(-c2ncnc3[nH]c(C4=CCSCC4)cc23)c1CO`, the results for the IC50 in assay [1] and in assay [2] were 67.1 nM and 46 nM, respectively.
As to `O=c1c2c(F)cc(C3CC3)cc2ccn1-c1cccc(-c2ncnc3[nH]c(-c4ccc(O)cc4)cc23)c1CO`, the results for the IC50 in assay [1] and in assay [2] were 73.9 nM and 211 nM, respectively.
Taken in the same sequence, the figures for `Cn1ccc(-c2cc3c(-c4cccc(-n5ccc6cc(C7CC7)cc(F)c6c5=O)c4CO)ncnc3[nH]2)n1` were 21.3 nM and 38 nM.
